According to patent publication US9408816B2, “Method of using histone deacetylase inhibitors and monitoring biomarkers in combination therapy” (Pharmacyclics LLC, priority 2006, dated 2016):

Assays:
HH cell line = assay: Combination with doxorubicin in HH; type: cell-based; conditions: administered simultaneously
[1] = test system: RAD51 transcript in HCT116 cells; assay: RAD51 transcript levels by real time PCR in HCT116 cells; type: cell-based; conditions: by 24 hours, HCT-116 in vitro
[2] = test system: RAD51 mRNA in lymphoma cell lines; assay: RAD51 mRNA by Taqman RT-PCR in lymphoma cell lines; type: cell-based
Description: (§1) Tagman Gene Expression Assays: 10 lymphoma cell lines were treated with PCI-24781 for various times and total RNA was isolated and quantitated. Taqman assays were set up using the Taqman master mix (Applied Biosystems) and 50 ng of total RNA as template. Gene expression assay probe sets for RAD51 was purchased from Applied Biosystems.
(§2) Cell lines were treated with 3-((dimethylamino)methyl)-N-(2-(4-(hydroxycarbamoyl)phenoxy)ethyl)benzofuran-2-carboxamide for 24 hours, and RAD51 mRNA was analyzed by Taqman RT-PCR.

[3] = test system: RAD51 protein in HH cutaneous T-cell lymphoma cell line; assay: RAD51 protein downregulation in HH cell line (Western blot); type: cell-based; conditions: 24 hours
Description: (§3) Western Blot Analysis: Cell lines [al NHL except for Jurkat (T-cll leukemia) and K562 (CML)] were treated with PCI-24781 for the designated times, lysed and total protein was quantitated and western blot analysis performed. RAD51 and Actin antibodies were from Santa Cruz.

RAD51 in HCT116 cells = assay: RAD51 protein levels by Western blotting in HCT116 cells; type: cell-based; conditions: by 24 hours, HCT-116 in vitro
Description: (§4) To explore this further, we analyzed levels of RAD51, an essential protein in HR, by Western blotting and immunofluorescence. Following exposure of HCT116 cells to doses of the test compound ranging from 0.2 μM to 2.0 μM, RAD51 levels decreased to 20% of control by 24 hr, but remained unchanged at 6 hr. […] Finally, RAD51 nuclear foci were visualized following γ-irradiation.
For determination of protein levels by Western blot, cellular extracts are prepared as follows. Cells are harvested by scraping; washed with PBS and pelleted by centrifugation. Cell pellets (from 100 mm plate) are resuspended with 200 μl B3 buffer containing protease inhibitors shaken at 4° C. for 10 min and centrifuge at 12,000 rpm at 4° C. in Tomy microcentrifuge for 10 minutes. To make 1 liter of B3 buffer, add 1 ml of NP-40, 50 ml of 5 M NaCl, 10 ml of […], 50 ml of 1 M Tris HCl at pH7.5 to 889 ml dH2O. The day of cell harvest protease inhibitors are added to B3 buffer (aprotinin, leupeptin and pepstatin to a final concentration of 2 μg/ml, 5 μg/ml and 0.7 μg/ml, respectively). […] Sample protein concentrations are determined by the Bradford Assay (BioRad; Richmond, Calif.). […]
Western Blot Analysis: Cell lines [al NHL except for Jurkat (T-cll leukemia) and K562 (CML)] were treated with PCI-24781 for the designated times, lysed and total protein was quantitated and western blot analysis performed. […]

[4] = test system: RAD51 foci in irradiated HCT-116 cells; assay: RAD51 nuclear foci following γ-irradiation; type: cell-based; conditions: pretreatment for 24 hours
Description: as §4
Monolayer cultures of different cells are grown in Dulbecco's MEM medium supplemented with 10% fetal bovine serum and antibiotics. The cells are detached from culture flasks by gentle trypsinization, pelleted and resuspended in phosphate buffered saline (PBS; 136 mM NaCl, 2 mM KCG, 10.6 mM NaHPO4, 1.5 mM KH2PO4 [pH 7.3]) prewarmed at 37° C. (Haaf, et al., 1995, Proc. Natl. Acad. Sci. USA 92: 2298-2302). Cultured cells are washed and resuspended in PBS. The density of somatic cells is adjusted to about 10^5 cells per ml in PBS. Aliquots (0.5 ml) of the cell suspension are centrifuged onto clean glass slides at 800 rpm for 4 min, in a Cytospin (Shandon, Pittsburg). Immediately after cytocentrifugation, the slides are fixed in −20° C. methanol for 30 min and then immersed in ice-cold acetone for a few seconds to permealize the cells for antibody staining. […]

lymphoma cell lines = assay: Apoptosis by Annexin V-FITC flow cytometry in lymphoma cell lines; type: cell-based
Description: (§5) 3-((dimethylamino)methyl)-N-(2-(4-(hydroxycarbamoyl)phenoxy)ethyl)benzofuran-2-carboxamide induced apoptosis in lymphoma cell lines after a 48 hour incubation measured by Annexin V-FITC flow cytometry. […] Thus, both the initial level of RAD51 in tumors as well as the fold decrease after treatment are predictive for 3-((dimethylamino)methyl)-N-(2-(4-(hydroxycarbamoyl)phenoxy)ethyl)benzofuran-2-carboxamide activity, and in some embodiments is used as biomarkers in clinical studies to identify patients most likely to respond to 3-((dimethylamino)methyl)-N-(2-(4-(hydroxycarbamoyl)phenoxy)ethyl)benzofuran-2-carboxamide.

[5] = test system: RAD51 protein in NHL cell lines; assay: RAD51 protein downregulation in Non-Hodgkins lymphoma cell lines (Western blot); type: cell-based; conditions: 24 hours, most of the cell lines tested
Description: as §3

HH lymphoma line = assay: Apoptosis by Annexin V-FITC flow cytometry in HH line; type: cell-based
Description: as §5

[6] = test system: RAD51 in HCT-116 mouse xenografts; assay: RAD51 levels in HCT-116 xenograft tumors; conditions: HCT-116, in vivo (not shown)
Description: Also shown are RAD51 levels and actin levels after extraction of tumor from HCT-116 mouse xenografts with different dosing regimens. 1× animals received a single oral dose 4 hours before the end of the study; 2× animals received one oral dose 28 hours before the end of the study and received a second dose 6 hours later; 3× animals were dosed as in the 2× but also received a third dose the following morning, 24 hours after the first dose was administered and 4 hours before the end of the study. Fold changes in protein levels were quantitated by using Odyssey software and were normalized to the levels of the actin loading control.
3-((dimethylamino)methyl)-N-(2-(4-(hydroxycarbamoyl)phenoxy)ethyl)benzofuran-2-carboxamide pretreatment for 24 hours also lead to complete loss of RAD51 foci in the nuclei of irradiated HCT-116 cells (not shown; see Adimoolam et al. 2007, PNAS epub Nov. 27 the experiment, which is herein incorporated by reference).

[7] = test system: DLCL2 Non-Hodgkins cell line; assay: Combination with doxorubicin in DLCL2; type: cell-based; conditions: administered simultaneously
[8] = test system: RAD51 mRNA in HH cell line; assay: RAD51 mRNA by Taqman RT-PCR in HH cell line; type: cell-based; conditions: 24 hours
Description: as §1, §2

[9] = test system: DHL-4 Non-Hodgkins cell line; assay: Combination with doxorubicin in DHL-4; type: cell-based; conditions: administered simultaneously

## CN(C)Cc1c(C(=O)NCCOc2ccc(C(=O)NO)cc2)oc2ccccc12 [3-((dimethylamino)methyl)-N-(2-(4-(hydroxycarbamoyl)phenoxy)ethyl)benzofuran-2-carboxamide]
HH cell line
  combination effect with doxorubicin: less than additive
[1]
  RAD51 mRNA levels: downregulating RAD51
[2]; 24 hours, most of the cell lines
  downregulation of RAD51 mRNA expression: more than 2 fold
[2]; the five cell lines with >70% apoptosis
  decrease in RAD51 mRNA: > 4 fold
[3]
  effect on RAD51 protein levels: least effect
RAD51 in HCT116 cells
  RAD51 protein levels: downregulating RAD51
[4]
  RAD51 foci in the nuclei: complete loss
Lymphoma cell lines; 48 hour incubation, all the lines except HH
  apoptotic cell death: dose-dependent increase in apoptotic cell death
Lymphoma cell lines; at 24 hrs, all the lines
  apoptosis: lower levels of apoptosis
Lymphoma cell lines; five most sensitive cell lines
  apoptosis following drug treatment: > 70%
[5]
  RAD51 protein levels: downregulated RAD51 protein levels in a dose-dependent manner
[5]; listed as 3-((dimethylamino)methyl) -N-(2-(4-(hydroxycarbamoyl)phenoxy)ethyl)benzofuran-2-
  RAD51 protein levels: downregulated RAD51 protein levels
HH lymphoma line
  apoptosis: least % apoptosis
[6]
  RAD51 levels in vivo: downregulating RAD51
[7]
  combination effect with doxorubicin: synergistic effects
[8]
  RAD51 mRNA change: no decrease
[9]
  combination effect with doxorubicin: synergistic effects
